Measured values published in paper PMC6877910, “Astrocyte-Targeted Transporter-Utilizing Derivatives of Ferulic Acid Can Have Multifunctional Effects Ameliorating Inflammation and Oxidative Stress in the Brain” (Oxidative Medicine and Cellular Longevity, 2019).
Where “and” joins values, the source holds several entries; their conditions need not be identical. Equal entries are not always repeated. Where two headings read alike, the source gives them in different places.

Legend:
[1] = target: T1, LAT1 (Mus musculus, UniProt Q9Z127); experiment: Ability to bind LAT1: inhibition of [14C]-L-leucine uptake in mouse primary astrocytes; assay type: cell-based; settings: mean ± SD; for IC50: n = 3-4, read-out: IC50 in astrocytes (LAT1-probe substrate [14C]-L-leucine uptake)
T1 construct: mouse primary astrocytes, from which we have recently characterized LAT1 expression and function; endogenous in cells; host or cells: mouse primary astrocytes (cortex and hippocampi of 2-day-old wild-type and APP/PS1 mice)
T1 sequence (Q9Z127 whole entry): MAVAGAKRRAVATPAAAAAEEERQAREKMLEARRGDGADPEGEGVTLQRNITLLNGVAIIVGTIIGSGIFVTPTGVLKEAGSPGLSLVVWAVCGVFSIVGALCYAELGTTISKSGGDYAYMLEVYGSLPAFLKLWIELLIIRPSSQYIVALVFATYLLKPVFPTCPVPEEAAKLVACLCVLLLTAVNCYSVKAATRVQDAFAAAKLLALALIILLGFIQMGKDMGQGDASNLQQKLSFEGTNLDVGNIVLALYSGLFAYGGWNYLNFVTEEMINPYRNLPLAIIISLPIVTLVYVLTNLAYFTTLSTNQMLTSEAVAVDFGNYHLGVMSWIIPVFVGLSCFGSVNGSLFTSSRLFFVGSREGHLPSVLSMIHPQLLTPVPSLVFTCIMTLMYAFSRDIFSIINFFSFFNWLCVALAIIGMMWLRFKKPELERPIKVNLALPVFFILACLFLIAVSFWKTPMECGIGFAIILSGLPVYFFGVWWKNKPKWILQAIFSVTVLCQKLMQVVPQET
T1 sequence (P10852 whole entry partner): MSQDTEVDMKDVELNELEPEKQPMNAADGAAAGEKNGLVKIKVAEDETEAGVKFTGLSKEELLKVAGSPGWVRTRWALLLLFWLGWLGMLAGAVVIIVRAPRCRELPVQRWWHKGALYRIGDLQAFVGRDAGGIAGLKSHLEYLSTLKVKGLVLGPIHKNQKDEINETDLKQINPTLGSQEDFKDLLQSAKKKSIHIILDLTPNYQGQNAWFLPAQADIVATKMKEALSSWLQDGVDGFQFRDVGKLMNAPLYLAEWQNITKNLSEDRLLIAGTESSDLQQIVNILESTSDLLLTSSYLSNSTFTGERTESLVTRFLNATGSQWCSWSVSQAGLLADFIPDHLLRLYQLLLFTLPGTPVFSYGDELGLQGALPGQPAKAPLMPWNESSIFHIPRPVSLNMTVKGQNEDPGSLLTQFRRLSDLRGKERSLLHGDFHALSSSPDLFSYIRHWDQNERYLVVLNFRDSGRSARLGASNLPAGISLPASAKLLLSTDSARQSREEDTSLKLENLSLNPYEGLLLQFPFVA
Procedure: For the transporter binding studies, the astrocytes were seeded on 24-well plates with a density of 10 × 10^4 cells/well three days before the experiments. After removal of the culture medium, the cells were carefully washed with prewarmed HBSS (Hank's balance salt solution) containing choline chloride (125 mM), KCl (4.8 mM), MgSO4 (1.2 mM), KH2PO4 (1.2 mM), CaCl2 (1.3 mM), glucose (5.6 mM), and HEPES (25 mM) adjusted to pH 7.4 with 1 M NaOH. The cells were preincubated with 500 μL of prewarmed HBSS at 37°C for 10 min before the experiments. To study the ability of studied compounds to inhibit the uptake of a known LAT1 substrate, the cells were incubated at 37°C for 5 min with an uptake buffer (HBSS, 250 μL) containing 0.76 μM (0.25 mCi/mL or 9.85 MBq/mL) of [^14C]-L-leucine (PerkinElmer, Inc., Waltham, MA, USA) and 0.1-1000 μM of studied compound (or HBSS as blank). After incubation, the uptake was stopped by adding 500 μL of ice-cold HBSS and the cells were washed two times with ice-cold HBSS. The cells were then lysed with 500 μL of NaOH (0.1 M) for 60 min, and the lysate was mixed with 3.5 mL of Emulsifier safe cocktail (Ultima Gold, PerkinElmer, Inc., Waltham, MA, USA). The radioactivity in the cells was measured by liquid scintillation counting (MicroBeta^2 counter, PerkinElmer, Inc., Waltham, MA, USA). Half of maximum inhibitory concentration (IC50) values were calculated by nonlinear regression analysis (fitting the curve to log (concentration) vs. remaining normalized […]).

[2] = in vitro; assay type: in vitro ADME; settings: mouse; for fraction unbound at 4 h, 10 μM: C57BL/6J
Procedure: The unbound fraction of FA and its derivatives 1-2 was determined at 10 μM in cell homogenate by using a Rapid Equilibrium Dialysis (RED) device (Thermo Fisher Scientific, Inc., Waltham, MA, USA). Briefly, the cell homogenate was prepared from astrocyte cell suspension (10 × 10^6 cells/mL) in HBSS with a SoniPerp 150 Plus disintegrator (MSE Ltd., London, UK) for 2 s × 3. 100 μL of cell homogenate spiked with the studied compound was added to the reaction chamber, and 350 μL of HBSS buffer was added to the buffer chamber of the RED plate. The dialysis plate was incubated at 37°C for 4 h with shaking. 50 μL of samples was taken from the reaction, and buffer chambers and equal size of buffer or blank homogenate were added, respectively, to yield identical matrices. The proteins were precipitated by adding 100 μL of ice-cold ACN (including the selected internal standard; […]

[3] = target: T2, acetylcholinesterase (AChE) (Mus musculus, UniProt P21836); experiment: biochemical; assay type: biochemical; settings: for Vmax of AChE activity in the presence of derivative (Hanes-Woolf plot): 16-66 μM derivative, Crtl Vmax = 2.21
T2 construct: mouse brain S9 fraction was prepared by homogenizing freshly collected mouse brain; from tissue; host or cells: mouse brain S9 fraction (9 000 x g supernatant)
T2 sequence (P21836 32-614): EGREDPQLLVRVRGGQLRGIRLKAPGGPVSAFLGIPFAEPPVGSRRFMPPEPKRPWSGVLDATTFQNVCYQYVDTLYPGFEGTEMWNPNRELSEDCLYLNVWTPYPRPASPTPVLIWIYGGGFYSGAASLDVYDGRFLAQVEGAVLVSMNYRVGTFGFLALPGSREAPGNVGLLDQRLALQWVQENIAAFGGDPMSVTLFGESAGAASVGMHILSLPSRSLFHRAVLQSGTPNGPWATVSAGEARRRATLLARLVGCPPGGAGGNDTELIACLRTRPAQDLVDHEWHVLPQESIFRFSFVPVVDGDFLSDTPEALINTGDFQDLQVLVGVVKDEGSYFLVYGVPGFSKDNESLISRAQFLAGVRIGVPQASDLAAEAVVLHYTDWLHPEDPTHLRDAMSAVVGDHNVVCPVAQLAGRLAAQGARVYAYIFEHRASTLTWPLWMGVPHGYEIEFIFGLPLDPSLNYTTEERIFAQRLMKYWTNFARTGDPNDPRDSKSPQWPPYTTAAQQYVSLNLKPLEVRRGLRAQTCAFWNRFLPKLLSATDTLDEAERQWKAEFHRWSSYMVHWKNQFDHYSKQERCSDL
Procedure: Briefly, mouse brain S9 fraction was prepared by homogenizing freshly collected mouse brain with 50 mM Tris-buffered saline (TBS) (pH 7.4) (1 : 4, w/v), centrifuging the homogenate at 9 000 × g for 20 min at 4°C and collecting the supernatant. The supernatant was then diluted at 1 : 10 with phosphate-buffered saline (100 mM; pH 7.0) and mixed with Ellman's reagent (5,5′-dithiobis-(2-nitrobenzoic acid); DTNB; 1 mM) and studied compounds in DMSO (DMSO concentration was less than 0.5%) on a 96-well plate as 3 parallel assays.
According to the Hanes-Woolf plots, the ratio of initial substrate concentration to the reaction velocity ([S]/v) was plotted against the substrate concentration (μM).

[4] = tested on: LAT1; settings: human breast adenocarcinoma cells (MCF-7); previously determined values; cited from earlier work
[5] = mouse brain S9 subcellular fraction, 30 min end point, mean ± SD, n = 3
[6] = 10 μM in astrocyte cell homogenate, mean ± SD, n = 3, read-out: Unbound fraction fu,cell

Compound | IC50 in astrocytes (LAT1-probe substrate [14C]-L-leucine uptake) ([1]; n = 3-4) | fraction unbound at 4 h, 10 μM ([2]; tissue homogenate) | Unbound fraction fu,cell ([2]; tissue homogenate) | AChE IC50 value [3, 5] | IC50 [1] | fraction unbound at 4 h, 10 μM [2, 6] | IC50 [4] [µM] | Vmax of AChE activity in the presence of derivative (Hanes-Woolf plot) [3] [nmol/min/mg] | IC50 [3, 5] [µM]
COc1cc(/C=C/C(=O)O)ccc1O [FA, trans-4-hydroxy-3-methoxycinnamic acid, reference compound] | No inhibition | 1 | Fully unbound | No inhibition |  |  |  |  | 
COc1cc(C=CC(=O)NCc2cccc(CC(N)C(=O)O)c2)ccc1O (stereo not shown) [FA-derivative 1] |  |  |  |  | 2.2 µM and 2.15 µM | 0.163 ± 0.0272 | 14.2 | 2.12 | 16.3 ± 1.52
COc1cc(C=CC(=O)Nc2cccc(CC(N)C(=O)O)c2)ccc1O (stereo not shown) [FA-derivative 2] |  |  |  |  | 8.9 ± 1.25 µM | 0.0806 ± 0.0054 | 1.1 |  | 25.2 ± 1.43
COc1cc(C=CC(=O)Oc2cccc(CC(N)C(=O)O)c2)ccc1O (stereo not shown) [FA-derivative 3] |  |  |  |  | 28.7 ± 1.15 µM |  |  | 2.09 | 66.2 ± 1.23
